From ChEMBL document CHEMBL1909046, “DrugMatrix in vitro pharmacology data”

Columns and labels:
[1] = biological target: 5-hydroxytryptamine receptor 2B (Homo sapiens, UniProt P41595); format: cell membranes, CHO-K1, Membrane; conditions: for Ki: read-out: Ki; for all read-outs here: in other assays of this panel Not Active means under 50% inhibition at 10 µM
[2] = biological target: 5-hydroxytryptamine receptor 4 (Cavia porcellus, UniProt O70528); format: cell membranes, Dunkin-Hartley, Striatum, Membrane; note: in other assays of this panel Not Active means under 50% inhibition at 10 µM
Chain of 5-hydroxytryptamine receptor 4 (O70528 whole entry): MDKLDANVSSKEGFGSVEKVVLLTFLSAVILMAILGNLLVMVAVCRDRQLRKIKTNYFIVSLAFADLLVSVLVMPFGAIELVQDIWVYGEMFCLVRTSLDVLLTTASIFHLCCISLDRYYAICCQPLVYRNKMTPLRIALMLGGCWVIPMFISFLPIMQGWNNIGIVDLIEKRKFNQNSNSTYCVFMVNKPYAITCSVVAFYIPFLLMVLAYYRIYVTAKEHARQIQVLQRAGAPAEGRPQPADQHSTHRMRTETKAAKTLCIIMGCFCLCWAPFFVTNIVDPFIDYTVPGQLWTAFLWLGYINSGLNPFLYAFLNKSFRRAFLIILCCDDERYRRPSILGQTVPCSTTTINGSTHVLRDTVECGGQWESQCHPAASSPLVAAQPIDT

Vasopressin V1a receptor = Vasopressin V1a receptor (Homo sapiens, UniProt P37288); format: cell membranes, Membrane; conditions: hek293; note: in other assays of this panel Not Active means under 50% inhibition at 10 µM
Chain of Vasopressin V1a receptor (P37288 whole entry): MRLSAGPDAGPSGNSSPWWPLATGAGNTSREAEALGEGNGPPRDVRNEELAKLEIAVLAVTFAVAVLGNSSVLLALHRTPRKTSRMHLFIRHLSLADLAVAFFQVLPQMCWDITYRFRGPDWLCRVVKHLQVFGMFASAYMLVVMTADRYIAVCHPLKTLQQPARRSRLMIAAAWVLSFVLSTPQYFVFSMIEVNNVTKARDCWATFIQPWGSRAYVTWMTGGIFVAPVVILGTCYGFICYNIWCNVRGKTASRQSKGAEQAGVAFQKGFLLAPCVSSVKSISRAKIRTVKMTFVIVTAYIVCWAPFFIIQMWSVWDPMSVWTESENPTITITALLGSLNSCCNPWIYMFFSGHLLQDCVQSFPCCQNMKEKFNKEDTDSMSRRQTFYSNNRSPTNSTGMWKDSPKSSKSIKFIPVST

[3] = DRUGMATRIX: Glutamate, Kainate radioligand binding (ligand: [3H] Kainic acid); format: cell membranes, Rattus norvegicus, Wistar, Brain, Membrane; conditions: Not Active = under 50% inhibition at 10 µM
[4] = biological target: T1, 3-hydroxy-3-methylglutaryl-coenzyme A reductase (Homo sapiens, UniProt P04035); design: species or system Escherichia coli;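 note: enzyme inhibition assay of HMG-CoA reductase using radiolabeled [14C]HMG-CoA as substrate; in other assays of this panel Not Active means under 50% inhibition at 10 µM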
T1 sequence (P04035 whole entry): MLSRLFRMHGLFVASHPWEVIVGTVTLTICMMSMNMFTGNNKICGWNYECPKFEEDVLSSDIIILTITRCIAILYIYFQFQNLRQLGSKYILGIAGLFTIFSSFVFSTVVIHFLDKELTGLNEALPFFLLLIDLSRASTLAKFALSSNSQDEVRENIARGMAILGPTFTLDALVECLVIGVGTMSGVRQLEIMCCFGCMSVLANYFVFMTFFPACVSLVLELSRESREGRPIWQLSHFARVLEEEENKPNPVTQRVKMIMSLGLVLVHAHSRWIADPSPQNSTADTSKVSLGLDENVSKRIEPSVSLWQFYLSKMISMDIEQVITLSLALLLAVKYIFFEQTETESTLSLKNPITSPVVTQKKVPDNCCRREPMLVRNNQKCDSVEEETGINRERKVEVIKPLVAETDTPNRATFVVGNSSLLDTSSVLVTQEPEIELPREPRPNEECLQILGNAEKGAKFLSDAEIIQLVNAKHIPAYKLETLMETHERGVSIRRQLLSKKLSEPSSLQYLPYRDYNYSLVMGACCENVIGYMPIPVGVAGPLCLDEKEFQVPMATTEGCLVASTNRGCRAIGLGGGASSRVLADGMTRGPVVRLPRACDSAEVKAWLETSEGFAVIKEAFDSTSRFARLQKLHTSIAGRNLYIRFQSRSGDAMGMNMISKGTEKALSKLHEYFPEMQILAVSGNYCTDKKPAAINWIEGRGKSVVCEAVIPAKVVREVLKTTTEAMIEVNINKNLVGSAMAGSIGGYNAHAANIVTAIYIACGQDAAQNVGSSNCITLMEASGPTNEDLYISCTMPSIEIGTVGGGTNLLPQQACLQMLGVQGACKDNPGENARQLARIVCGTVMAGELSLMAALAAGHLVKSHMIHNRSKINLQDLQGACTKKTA

[5] = biological target: Kappa-type opioid receptor (Homo sapiens, UniProt P41145); assay: DRUGMATRIX: Opiate kappa (OP2, KOP) radioligand binding (ligand: [3H] Diprenorphine); format: cell membranes, HEK293, Membrane; conditions: hek293; Not Active = under 50% inhibition at 10 µM
Chain of Kappa-type opioid receptor (P41145 whole entry): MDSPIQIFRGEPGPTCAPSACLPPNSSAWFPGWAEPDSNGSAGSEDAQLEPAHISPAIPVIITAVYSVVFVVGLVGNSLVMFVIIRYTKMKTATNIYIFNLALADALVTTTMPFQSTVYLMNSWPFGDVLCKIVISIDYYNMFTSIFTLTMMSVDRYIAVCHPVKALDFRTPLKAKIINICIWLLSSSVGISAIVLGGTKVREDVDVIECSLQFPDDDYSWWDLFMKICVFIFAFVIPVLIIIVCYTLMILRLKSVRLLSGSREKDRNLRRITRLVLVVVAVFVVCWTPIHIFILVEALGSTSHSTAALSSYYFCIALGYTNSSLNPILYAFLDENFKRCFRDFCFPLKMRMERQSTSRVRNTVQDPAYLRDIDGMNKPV

Interstitial collagenase = biological target: T2, Interstitial collagenase (Homo sapiens, UniProt P03956); assay: biochemical; format: tissue-based, Rheumatoid synovial fibroblasts
T2 sequence (P03956 whole entry): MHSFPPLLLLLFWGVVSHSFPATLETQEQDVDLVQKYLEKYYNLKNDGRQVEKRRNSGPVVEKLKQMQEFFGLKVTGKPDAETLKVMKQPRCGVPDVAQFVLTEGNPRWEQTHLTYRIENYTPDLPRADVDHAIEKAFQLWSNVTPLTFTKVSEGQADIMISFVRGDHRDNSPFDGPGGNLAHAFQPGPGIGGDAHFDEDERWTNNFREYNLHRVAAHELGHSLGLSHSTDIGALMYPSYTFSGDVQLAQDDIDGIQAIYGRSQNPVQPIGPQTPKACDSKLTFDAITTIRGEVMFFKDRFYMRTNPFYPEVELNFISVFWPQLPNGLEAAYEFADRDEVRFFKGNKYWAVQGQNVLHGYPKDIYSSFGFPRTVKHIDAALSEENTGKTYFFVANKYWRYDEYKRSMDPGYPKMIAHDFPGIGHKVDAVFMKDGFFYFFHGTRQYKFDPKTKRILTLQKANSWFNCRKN

Chain of 5-hydroxytryptamine receptor 2B (P41595 whole entry): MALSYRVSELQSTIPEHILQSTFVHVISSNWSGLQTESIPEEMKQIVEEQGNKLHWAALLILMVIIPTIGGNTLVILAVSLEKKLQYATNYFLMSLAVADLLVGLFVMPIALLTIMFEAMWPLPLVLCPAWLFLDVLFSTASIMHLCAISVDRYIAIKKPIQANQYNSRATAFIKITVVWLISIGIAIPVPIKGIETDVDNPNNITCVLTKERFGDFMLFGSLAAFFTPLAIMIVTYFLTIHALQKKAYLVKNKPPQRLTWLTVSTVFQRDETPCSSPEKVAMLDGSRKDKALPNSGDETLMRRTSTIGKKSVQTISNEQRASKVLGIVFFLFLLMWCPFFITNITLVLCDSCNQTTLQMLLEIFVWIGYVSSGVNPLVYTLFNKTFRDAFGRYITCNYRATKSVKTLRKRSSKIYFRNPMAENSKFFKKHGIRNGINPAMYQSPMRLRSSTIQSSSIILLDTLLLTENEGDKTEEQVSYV

CCC(C)n1ncn(-c2ccc(N3CCN(c4ccc(OCC5COC(Cn6cncn6)(c6ccc(Cl)cc6Cl)O5)cc4)CC3)cc2)c1=O (centres undefined) [ITRACONAZOLE]
IC50 ([1]; cho-k1): Not Active | IC50 [2]: Not Active | IC50 (Vasopressin V1a receptor): Not Active | IC50 [3]: Not Active | Ki [3]: Not Active | IC50 [4]: Not Active | IC50 [5]: Not Active | IC50 (Interstitial collagenase): Not Active

CCCCN1CCCC[C@H]1C(=O)Nc1c(C)cccc1C [LEVOBUPIVACAINE]
IC50 ([1]; cho-k1): Not Active | IC50 [2]: Not Active | IC50 (Vasopressin V1a receptor): Not Active | IC50 [3]: Not Active | Ki [3]: Not Active | IC50 [4]: Not Active | IC50 [5]: Not Active | IC50 (Interstitial collagenase): Not Active

CCCCc1nc(Cl)c(CO)n1Cc1ccc(-c2ccccc2-c2nnn[nH]2)cc1 [LOSARTAN]
IC50 ([1]; cho-k1): Not Active | IC50 [2]: Not Active | IC50 (Vasopressin V1a receptor): Not Active | IC50 [3]: Not Active | Ki [3]: Not Active | IC50 [4]: Not Active | IC50 [5]: Not Active | IC50 (Interstitial collagenase): Not Active

Sc1ncnc2nc[nH]c12 [MERCAPTOPURINE ANHYDROUS]
IC50 ([1]; cho-k1): Not Active | IC50 [2]: Not Active | IC50 (Vasopressin V1a receptor): Not Active | IC50 [3]: Not Active | Ki [3]: Not Active | IC50 [4]: Not Active | IC50 [5]: Not Active | IC50 (Interstitial collagenase): Not Active

C[C@](N)(Cc1ccc(O)c(O)c1)C(=O)O [METHYLDOPA]
IC50 ([1]; cho-k1): Not Active | IC50 [2]: Not Active | IC50 (Vasopressin V1a receptor): Not Active | IC50 [3]: Not Active | Ki [3]: Not Active | IC50 [4]: Not Active | IC50 [5]: Not Active | IC50 (Interstitial collagenase): Not Active

C[C@]12CCC(=O)C=C1CC[C@@H]1[C@@H]2CC[C@@]2(C)[C@H]1CC[C@]2(C)O [METHYLTESTOSTERONE]
IC50 ([1]; cho-k1): Not Active | IC50 [2]: Not Active | IC50 (Vasopressin V1a receptor): Not Active | IC50 [3]: Not Active | Ki [3]: Not Active | IC50 [4]: Not Active | IC50 [5]: Not Active | IC50 (Interstitial collagenase): Not Active

Cc1ccccc1N1C(=O)c2cc(S(N)(=O)=O)c(Cl)cc2NC1C (centres undefined) [METOLAZONE]
IC50 ([1]; cho-k1): Not Active | IC50 [2]: Not Active | IC50 (Vasopressin V1a receptor): Not Active | IC50 [3]: Not Active | Ki [3]: Not Active | IC50 [4]: Not Active | IC50 [5]: Not Active | IC50 (Interstitial collagenase): Not Active

COCCc1ccc(OCC(O)CNC(C)C)cc1 (centres undefined) [METOPROLOL]
IC50 ([1]; cho-k1): Not Active | IC50 [2]: Not Active | IC50 (Vasopressin V1a receptor): Not Active | IC50 [3]: Not Active | Ki [3]: Not Active | IC50 [4]: Not Active | IC50 [5]: Not Active | IC50 (Interstitial collagenase): Not Active

CCn1cc(C(=O)O)c(=O)c2cc(F)c(N3CCNCC3)cc21 [NORFLOXACIN]
IC50 ([1]; cho-k1): Not Active | IC50 [2]: Not Active | IC50 (Vasopressin V1a receptor): Not Active | IC50 [3]: Not Active | Ki [3]: Not Active | IC50 [4]: Not Active | IC50 [5]: Not Active | IC50 (Interstitial collagenase): Not Active

NC1=NC(=O)C(c2ccccc2)O1 (centres undefined) [PEMOLINE]
IC50 ([1]; cho-k1): Not Active | IC50 [2]: Not Active | IC50 (Vasopressin V1a receptor): Not Active | IC50 [3]: Not Active | Ki [3]: Not Active | IC50 [4]: Not Active | IC50 [5]: Not Active | IC50 (Interstitial collagenase): Not Active

Nc1nc2c(ncn2CCC(CO)CO)c(=O)[nH]1 [PENCICLOVIR]
IC50 ([1]; cho-k1): Not Active | IC50 [2]: Not Active | IC50 (Vasopressin V1a receptor): Not Active | IC50 [3]: Not Active | Ki [3]: Not Active | IC50 [4]: Not Active | IC50 [5]: Not Active | IC50 (Interstitial collagenase): Not Active

C=C(C)C1(O)OC(=O)C=C1OC (centres undefined) [PENICILLIC ACID]
IC50 ([1]; cho-k1): Not Active | IC50 [2]: Not Active | IC50 (Vasopressin V1a receptor): Not Active | IC50 [3]: Not Active | Ki [3]: Not Active | IC50 [4]: Not Active | IC50 [5]: Not Active | IC50 (Interstitial collagenase): Not Active

CC1(C)S[C@@H]2[C@H](NC(=O)Cc3ccccc3)C(=O)N2[C@H]1C(=O)O [PENICILLIN G]
IC50 ([1]; cho-k1): Not Active | IC50 [2]: Not Active | IC50 (Vasopressin V1a receptor): Not Active | IC50 [3]: Not Active | Ki [3]: Not Active | IC50 [4]: Not Active | IC50 [5]: Not Active | IC50 (Interstitial collagenase): Not Active

CCCN1C[C@H](CSC)C[C@@H]2c3cccc4[nH]cc(c34)C[C@H]21 [PERGOLIDE]
IC50 ([1]; read-out: IC50): 76 nM | Ki [1]: 49 nM | IC50 [2]: Not Active | IC50 (Vasopressin V1a receptor): Not Active | IC50 [3]: Not Active | Ki [3]: Not Active | IC50 [4]: Not Active | IC50 [5]: Not Active | IC50 (Interstitial collagenase): Not Active

C1CCC(C(CC2CCCCN2)C2CCCCC2)CC1 (centres undefined) [PERHEXILINE]
IC50 ([1]; cho-k1): Not Active | IC50 [2]: Not Active | IC50 (Vasopressin V1a receptor): Not Active | IC50 [3]: Not Active | Ki [3]: Not Active | IC50 [4]: Not Active | IC50 [5]: Not Active | IC50 (Interstitial collagenase): Not Active

CCOc1ccc(NC(C)=O)cc1 [PHENACETIN]
IC50 ([1]; cho-k1): Not Active | IC50 [2]: Not Active | IC50 (Vasopressin V1a receptor): Not Active | IC50 [3]: Not Active | Ki [3]: Not Active | IC50 [4]: Not Active | IC50 [5]: Not Active | IC50 (Interstitial collagenase): Not Active

CNNCc1ccc(C(=O)NC(C)C)cc1 [PROCARBAZINE]
IC50 ([1]; cho-k1): Not Active | IC50 [2]: Not Active | IC50 (Vasopressin V1a receptor): Not Active | IC50 [3]: Not Active | Ki [3]: Not Active | IC50 [4]: Not Active | IC50 [5]: Not Active | IC50 (Interstitial collagenase): Not Active

CN(C)CCCN1c2ccccc2Sc2ccccc21 [PROMAZINE]
IC50 ([1]; read-out: IC50): 347 nM | Ki [1]: 221 nM | IC50 [2]: Not Active | IC50 (Vasopressin V1a receptor): Not Active | IC50 [3]: Not Active | Ki [3]: Not Active | IC50 [4]: Not Active | IC50 [5]: Not Active | IC50 (Interstitial collagenase): Not Active

CC(O)CO (centres undefined) [PROPYLENE GLYCOL]
IC50 ([1]; cho-k1): Not Active | IC50 [2]: Not Active | IC50 (Vasopressin V1a receptor): Not Active | IC50 [3]: Not Active | Ki [3]: Not Active | IC50 [4]: Not Active | IC50 [5]: Not Active | IC50 (Interstitial collagenase): Not Active
